From patent US12691112B2, “FGFR tyrosine kinase inhibitors for the treatment of urothelial carcinoma” (Janssen Pharmaceutica NV, priority 2019, dated 2026)
Read-outs that look alike come from different tables or passages of the source.

Tested on: subjects with metastatic or surgically unresectable urothelial cancer
Conditions: all-causality

COc1cc(OC)cc(N(CCNC(C)C)c2ccc3ncc(-c4cnn(C)c4)nc3c2)c1 [erdafitinib, N-(3,5-dimethoxy-phenyl)-N′-(1-methylethyl)-N-[3-(1-methyl-1H-pyrazol-4-yl)quinoxalin-6-yl]ethane-1,2-diamine]
26 no.: Stomatitis, grade 2 (8 mg continuous, n = 99)
37 no.: Dysgeusia, any grade (8 mg continuous, n = 99)
6 no.: Hand-foot syndrome, grade 1 (8 mg continuous, n = 99) | Nail dystrophy, grade ≥ 3 (8 mg continuous, n = 99) | Nausea, grade 2 (8 mg continuous, n = 99) | Onycholysis, grade 1 (8 mg continuous, n = 99) | Anemia, grade ≥ 3 (10 mg intermittent, n = 33) | Constipation, grade 2 (10 mg intermittent, n = 33) | Decreased appetite, grade 2 (10 mg intermittent, n = 33)
15 no.: Diarrhea, grade 2 (8 mg continuous, n = 99) | Weight decreased, any grade (8 mg continuous, n = 99)
34 no.: Dry mouth, grade 1 (8 mg continuous, n = 99)
2 no.: Dyspnea, grade 2 (8 mg continuous, n = 99) | Dyspnea, grade ≥ 3 (8 mg continuous, n = 99) | Fatigue, grade ≥ 3 (8 mg continuous, n = 99) | Hematuria, grade ≥ 3 (8 mg continuous, n = 99) | Hyperphosphatemia, grade ≥ 3 (8 mg continuous, n = 99) | Onycholysis, grade ≥ 3 (8 mg continuous, n = 99) | Onychomadesis, grade 1 (8 mg continuous, n = 99) | Pain in extremity, grade 2 (8 mg continuous, n = 99) | Retinal detachment, grade 2 (8 mg continuous, n = 99) | Vomiting, grade ≥ 3 (8 mg continuous, n = 99) | Abdominal pain, grade 1 (10 mg intermittent, n = 33) | Abdominal pain, grade 2 (10 mg intermittent, n = 33) | Alopecia, grade 1 (10 mg intermittent, n = 33) | Alopecia, grade 2 (10 mg intermittent, n = 33) | Arthralgia, grade 2 (10 mg intermittent, n = 33) | Arthralgia, grade ≥ 3 (10 mg intermittent, n = 33) | Aspartate aminotransferase increased, any grade (10 mg intermittent, n = 33) | Aspartate aminotransferase increased, grade 1 (10 mg intermittent, n = 33) | Asthenia, grade ≥ 3 (10 mg intermittent, n = 33)
12 no.: Fatigue, grade 1 (8 mg continuous, n = 99) | Hand-foot syndrome, grade 2 (8 mg continuous, n = 99) | Hyponatremia, any grade (8 mg continuous, n = 99) | Pain in extremity, any grade (8 mg continuous, n = 99)
50 no.: Diarrhea, any grade (8 mg continuous, n = 99)
23 no.: Dysgeusia, grade 1 (8 mg continuous, n = 99) | Hand-foot syndrome, any grade (8 mg continuous, n = 99)
3 no.: Insomnia, grade 2 (8 mg continuous, n = 99) | Lacrimation increased, grade 2 (8 mg continuous, n = 99) | Paronychia, grade 1 (8 mg continuous, n = 99) | Paronychia, grade ≥ 3 (8 mg continuous, n = 99) | Peripheral edema, grade 2 (8 mg continuous, n = 99) | Retinal detachment, grade 1 (8 mg continuous, n = 99) | Arthralgia, grade 1 (10 mg intermittent, n = 33) | Asthenia, grade 2 (10 mg intermittent, n = 33) | Back pain, grade ≥ 3 (10 mg intermittent, n = 33) | Blood creatinine increased, grade 1 (10 mg intermittent, n = 33) | Conjunctivitis, grade 1 (10 mg intermittent, n = 33)
38 no.: Decreased appetite, any grade (8 mg continuous, n = 99)
24 no.: Dry skin, grade 1 (8 mg continuous, n = 99)
32 no.: Dry skin, any grade (8 mg continuous, n = 99) | Fatigue, any grade (8 mg continuous, n = 99)
53 no.: Hyperphosphatemia, grade 1 (8 mg continuous, n = 99)
17 no.: Paronychia, any grade (8 mg continuous, n = 99) | Vision blurred, any grade (8 mg continuous, n = 99)
45 no.: Dry mouth, any grade (8 mg continuous, n = 99)
4 no.: Diarrhea, grade ≥ 3 (8 mg continuous, n = 99) | Dry eye, grade 2 (8 mg continuous, n = 99) | Dyspnea, grade 1 (8 mg continuous, n = 99) | Insomnia, grade 1 (8 mg continuous, n = 99) | Alopecia, any grade (10 mg intermittent, n = 33) | Blood creatinine increased, any grade (10 mg intermittent, n = 33) | Conjunctivitis, any grade (10 mg intermittent, n = 33) | Decreased appetite, grade 1 (10 mg intermittent, n = 33)
20 no.: Decreased appetite, grade 2 (8 mg continuous, n = 99) | Nausea, any grade (8 mg continuous, n = 99)
1 no.: Constipation, grade ≥ 3 (8 mg continuous, n = 99) | Dry eye, grade ≥ 3 (8 mg continuous, n = 99) | Dysgeusia, grade ≥ 3 (8 mg continuous, n = 99) | Dyspepsia, grade 2 (8 mg continuous, n = 99) | Hematuria, grade 2 (8 mg continuous, n = 99) | Hypomagnesemia, grade 2 (8 mg continuous, n = 99) | Hyponatremia, grade 1 (8 mg continuous, n = 99) | Nausea, grade ≥ 3 (8 mg continuous, n = 99) | Oropharyngeal pain, grade 2 (8 mg continuous, n = 99) | Oropharyngeal pain, grade ≥ 3 (8 mg continuous, n = 99) | Peripheral edema, grade ≥ 3 (8 mg continuous, n = 99) | Vomiting, grade 2 (8 mg continuous, n = 99) | Abdominal pain, grade ≥ 3 (10 mg intermittent, n = 33) | Alanine aminotransferase increased, any grade (10 mg intermittent, n = 33) | Alanine aminotransferase increased, grade 2 (10 mg intermittent, n = 33) | Anemia, grade 1 (10 mg intermittent, n = 33) | Anemia, grade 2 (10 mg intermittent, n = 33) | Back pain, grade 1 (10 mg intermittent, n = 33) | Back pain, grade 2 (10 mg intermittent, n = 33) | Blood creatinine increased, grade 2 (10 mg intermittent, n = 33) | Conjunctivitis, grade 2 (10 mg intermittent, n = 33)
76 no.: Hyperphosphatemia, any grade (8 mg continuous, n = 99)
18 no.: Decreased appetite, grade 1 (8 mg continuous, n = 99) | Fatigue, grade 2 (8 mg continuous, n = 99) | Onycholysis, any grade (8 mg continuous, n = 99)
31 no.: Diarrhea, grade 1 (8 mg continuous, n = 99)
57 no.: Stomatitis, any grade (8 mg continuous, n = 99)
9 no.: Hypomagnesemia, grade 1 (8 mg continuous, n = 99) | Peripheral edema, any grade (8 mg continuous, n = 99)
8 no.: Dry skin, grade 2 (8 mg continuous, n = 99) | Dyspnea, any grade (8 mg continuous, n = 99) | Lacrimation increased, grade 1 (8 mg continuous, n = 99) | Oropharyngeal pain, grade 1 (8 mg continuous, n = 99) | Pyrexia, grade 1 (8 mg continuous, n = 99) | Weight decreased, grade 2 (8 mg continuous, n = 99) | Anemia, any grade (10 mg intermittent, n = 33) | Constipation, grade 1 (10 mg intermittent, n = 33)
10 no.: Dyspepsia, grade 1 (8 mg continuous, n = 99) | Hematuria, any grade (8 mg continuous, n = 99) | Hypomagnesemia, any grade (8 mg continuous, n = 99) | Onycholysis, grade 2 (8 mg continuous, n = 99) | Oropharyngeal pain, any grade (8 mg continuous, n = 99) | Pain in extremity, grade 1 (8 mg continuous, n = 99) | Stomatitis, grade ≥ 3 (8 mg continuous, n = 99) | Vision blurred, grade 1 (8 mg continuous, n = 99) | Vomiting, grade 1 (8 mg continuous, n = 99) | Asthenia, any grade (10 mg intermittent, n = 33)
21 no.: Hyperphosphatemia, grade 2 (8 mg continuous, n = 99) | Stomatitis, grade 1 (8 mg continuous, n = 99)
7 no.: Hematuria, grade 1 (8 mg continuous, n = 99) | Insomnia, any grade (8 mg continuous, n = 99) | Onychomadesis, any grade (8 mg continuous, n = 99) | Vision blurred, grade 2 (8 mg continuous, n = 99) | Weight decreased, grade 1 (8 mg continuous, n = 99) | Arthralgia, any grade (10 mg intermittent, n = 33)
14 no.: Dry eye, grade 1 (8 mg continuous, n = 99) | Constipation, any grade (10 mg intermittent, n = 33)
19 no.: Dry eye, any grade (8 mg continuous, n = 99)
0 no.: Decreased appetite, grade ≥ 3 (8 mg continuous, n = 99) | Dry mouth, grade ≥ 3 (8 mg continuous, n = 99) | Dry skin, grade ≥ 3 (8 mg continuous, n = 99) | Dyspepsia, grade ≥ 3 (8 mg continuous, n = 99) | Hypomagnesemia, grade ≥ 3 (8 mg continuous, n = 99) | Hyponatremia, grade 2 (8 mg continuous, n = 99) | Insomnia, grade ≥ 3 (8 mg continuous, n = 99) | Lacrimation increased, grade ≥ 3 (8 mg continuous, n = 99) | Onychomadesis, grade ≥ 3 (8 mg continuous, n = 99) | Pain in extremity, grade ≥ 3 (8 mg continuous, n = 99) | Pyrexia, grade ≥ 3 (8 mg continuous, n = 99) | Retinal detachment, grade ≥ 3 (8 mg continuous, n = 99) | Urinary tract infection, grade 1 (8 mg continuous, n = 99) | Vision blurred, grade ≥ 3 (8 mg continuous, n = 99) | Weight decreased, grade ≥ 3 (8 mg continuous, n = 99) | Alanine aminotransferase increased, grade 1 (10 mg intermittent, n = 33) | Alanine aminotransferase increased, grade ≥ 3 (10 mg intermittent, n = 33) | Alopecia, grade ≥ 3 (10 mg intermittent, n = 33) | Aspartate aminotransferase increased, grade 2 (10 mg intermittent, n = 33) | Aspartate aminotransferase increased, grade ≥ 3 (10 mg intermittent, n = 33) | Blood creatinine increased, grade ≥ 3 (10 mg intermittent, n = 33) | Conjunctivitis, grade ≥ 3 (10 mg intermittent, n = 33) | Constipation, grade ≥ 3 (10 mg intermittent, n = 33)
16 no.: Nail dystrophy, any grade (8 mg continuous, n = 99) | Urinary tract infection, any grade (8 mg continuous, n = 99)
5 no.: Hand-foot syndrome, grade ≥ 3 (8 mg continuous, n = 99) | Nail dystrophy, grade 1 (8 mg continuous, n = 99) | Nail dystrophy, grade 2 (8 mg continuous, n = 99) | Onychomadesis, grade 2 (8 mg continuous, n = 99) | Peripheral edema, grade 1 (8 mg continuous, n = 99) | Pyrexia, grade 2 (8 mg continuous, n = 99) | Retinal detachment, any grade (8 mg continuous, n = 99) | Urinary tract infection, grade ≥ 3 (8 mg continuous, n = 99) | Abdominal pain, any grade (10 mg intermittent, n = 33) | Asthenia, grade 1 (10 mg intermittent, n = 33) | Back pain, any grade (10 mg intermittent, n = 33)
11 no.: Dry mouth, grade 2 (8 mg continuous, n = 99) | Dyspepsia, any grade (8 mg continuous, n = 99) | Hyponatremia, grade ≥ 3 (8 mg continuous, n = 99) | Lacrimation increased, any grade (8 mg continuous, n = 99) | Paronychia, grade 2 (8 mg continuous, n = 99) | Urinary tract infection, grade 2 (8 mg continuous, n = 99) | Decreased appetite, any grade (10 mg intermittent, n = 33)
13 no.: Dysgeusia, grade 2 (8 mg continuous, n = 99) | Nausea, grade 1 (8 mg continuous, n = 99) | Pyrexia, any grade (8 mg continuous, n = 99) | Vomiting, any grade (8 mg continuous, n = 99)
